# Measured values from patent US11708549B2, “Bacterial, fungal, and yeast growth inhibitor containing allulose” (CJ CHEILJEDANG CORPORATION, priority 2016, dated 2023).
# How the values were obtained:
# [1] = system: Lactobacillus casei and Lactococcus lactis subsp. lactis, as bacteria; assay: Increase in cell number of bacteria depending on saccharides; type: cell-based; settings: bacteria in modified MRS medium, FIGS. 1 and 2
# Source text: (§1) Specifically, each of the microorganisms (bacteria, fungi, and yeasts) obtained from Korean Culture Center of Microorganisms (KCCM) was subcultured three or four times in a culture medium (Table 1) by a typical method to enhance activity. Then, the cultured microorganism was inoculated into a culture medium (Table 1), followed by inducing over-cultivation to a concentration of 10^5 CFU/mL or more, thereby obtaining a strain mother liquor (Table 1).
# (§2) In order to compare degrees of inhibition of the growth of microorganisms depending upon the kind of purely added saccharides without a bias due to alcohol and other additives contained in a fermented alcoholic beverage, only the kind of saccharides added to a culture medium for each of the microorganisms was varied and investigated.
# (§3) Specifically, as saccharides of a culture medium suited to each strain, water-containing crystalline glucose (purity 98 wt % or more, CJ Cheiljedang), sucrose (purity 98 wt % or more, CJ Cheiljedang), and crystalline allulose (purity: 98 wt % or more, CJ Cheiljedang) were added to each of the culture medium, thereby preparing a modified culture medium (Tables 2 to 4). […]
# (§4) Thereafter, the measured number of cell colonies was multiplied by a dilution factor, thereby calculating a value of colony forming unit (CFU) per mL of sample.
# [2] = system: Saccharomyces cerevisiae and Saccharomyces pastorianus, as yeasts; assay: Increase in cell number of yeasts depending on saccharides; type: cell-based; settings: yeasts in modified YMB medium, FIGS. 8 and 9
# Source text: as §1, §2, §3, §4
compound,measurement,setting,value
O=C(CO)C(O)C(O)C(O)CO (centres unmarked) [allulose],strain growth (in words),[1],substantially no strain growth was observed
same,strain growth (in words),[2],substantially no strain growth was observed
